Source: patent publication US12384777B2 (Tay Therapeutics Limited, priority 2019, dated 2025)
pEC50, pKd: −log10 of the molar value. Where two headings read alike, the source gives them in different places.

How the values were obtained:
[1] = target: BRD4 BD1 (Homo sapiens (Human), UniProt O60885); experiment: Bromodomain binding assay (T7 phage display, qPCR), BRD4 BD1
[2] = target: BRD4 BD2 (Homo sapiens (Human), UniProt O60885); experiment: Bromodomain binding assay (T7 phage display, qPCR), BRD4 BD2
Procedure: (§1) T7 phage strains displaying bromodomains were grown in parallel in 24-well blocks in an E. coli host derived from the BL21 strain. E. coli were grown to log-phase and infected with T7 phage from a frozen stock (multiplicity of infection=0.4) and incubated with shaking at 32° C. until lysis (90-150 min). The lysates were centrifuged (5,000×g) and filtered (0.2 μm) to remove cell debris. Streptavidin-coated magnetic beads were treated with biotinylated small molecule or acetylated peptide ligands for 30 min at RT to generate affinity resins for bromodomain assays. The ligated beads were blocked with excess biotin and washed with blocking buffer (SeaBlock (Pierce), 1% BSA, 0.05% Tween 20, 1 mM DTT) to remove unbound ligand and to reduce non-specific phage binding. Binding reactions were assembled by combining bromodomains, ligated affinity beads, and test compounds in 1× binding buffer (16% SeaBlock, 0.32×PBS, 0.02% BSA, 0.04% Tween 20, 0.004% Sodium azide, 7.9 mM DTT). Test compounds were prepared as 1000× stocks in 100% DMSO and subsequently diluted 1:25 in MEG. The compounds were then diluted directly into the assays such that the final concentrations of DMSO and MEG were 0.1% and 2.4%, respectively. All reactions were performed in polypropylene 384-well plates in a final volume of 0.02 ml. The assay plates were incubated at RT with shaking for 1 hr and the affinity beads were washed with wash buffer (1×PBS, 0.05% Tween 20). The beads were then re-suspended in elution buffer (1×PBS, 0.05% Tween 20, 2 μM non-biotinylated affinity ligand) and incubated at RT with shaking for 30 min. The bromodomain concentration in the eluates was measured by quantitative polymerase chain reaction (qPCR).
An 11-point 3-fold serial dilution of each test compound was prepared in 100% DMSO at 1000× final test concentration. All compounds were distributed by acoustic transfer (non-contact dispensing) in 100% DMSO. The compounds were then diluted directly into the assays such that the final concentration of DMSO was 0.09%. Most dissociation constants were determined using a compound top concentration=10,000 nM. If the initial dissociation constant determined was <0.169 nM (the lowest concentration tested), the measurement was repeated with a serial dilution starting at a lower top concentration.
The same bromodomain assay procedure as that outlined above was used. Example compounds were screened at 30 times their Kd, and results for primary screen binding interactions are reported as ‘% Ctrl’, where lower numbers indicate stronger hits in the matrix.

[3] = target: BRD2(1) (Homo sapiens (Human), UniProt P25440); experiment: Bromodomain binding assay, BRD2(1)
Procedure: as §1
(§2) An 11-point 3-fold serial dilution of each test compound was prepared in 100% DMSO at 1000× final test concentration. […] Most dissociation constants were determined using a compound top concentration=10,000 nM. If the initial dissociation constant determined was <0.169 nM (the lowest concentration tested), the measurement was repeated with a serial dilution starting at a lower top concentration. […]

[4] = target: BRD3(1) (Homo sapiens (Human), UniProt Q15059); experiment: Bromodomain binding assay, BRD3(1)
Procedure: as §1, §2

[5] = target: BRDT(1) (Homo sapiens (Human), UniProt Q58F21); experiment: Bromodomain binding assay, BRDT(1)
Procedure: as §1, §2

[6] = target: BRD2(2) (Homo sapiens (Human), UniProt P25440); experiment: Bromodomain binding assay, BRD2(2)
Procedure: as §1, §2

[7] = target: BRD3(2) (Homo sapiens (Human), UniProt Q15059); experiment: Bromodomain binding assay, BRD3(2)
Procedure: as §1, §2

[8] = target: BRDT(2) (Homo sapiens (Human), UniProt Q58F21); experiment: Bromodomain binding assay, BRDT(2)
Procedure: as §1, §2

[9] = tested on: CD4+ T-cells stimulated by CD2, CD3 and CD28 antibodies; experiment: Cellular activity IL-4: reduction of IL-4 levels in activated CD4+ T-cells; assay type: cell-based, human; conditions: Homo sapiens, T-cell
Procedure: • 1. CD4^+ T-cells are isolated from cryopreserved human peripheral blood mononuclear cells (PBMCs) using EasySep™ Kit (Cat. No. 17952, Stemcell Technologies). • 2. CD2, CD3 and CD28 antibodies coated beads from T cell Activation/Expansion Kit (Cat. No. 130-091-441, Miltenyi Biotec) are added to the CD4^+ T-cells at a bead-to-cell ratio of 1:2. • 3. CD4^+ T-cells along with the beads are seeded at 2×10^5 cells/well in a round bottom 96-well plate and treated with different compounds and controls in a total volume of 200 μl. • 4. The cells are cultured for 48 hrs at 37° C., 5% CO2. • 5. Supernatant is collected and IL-4 is analysed by ELISA.

[10] = tested on: healthy human skin stimulated by a Th2 or Th17 biasing cocktail; experiment: Th2 and Th17 stimulation of human skin explants, IL-4 / IL-17A mRNA; assay type: cell-based
Procedure: • 1. Freshly excised healthy human skin tissue from abdominoplasties is defatted, cleaned and sectioned into 7 mm biopsies. • 2. The biopsies are placed in Transwell® inserts with the epidermis apical and exposed to air and the dermis submerged in media in the basal chamber. • 3. The biopsies are pre-treated overnight at 37° C., 5% CO2 with different compounds and controls added to the media in the basal chamber. • 4. The next day, contents of the basal chamber is replaced with fresh media containing the test compound and a stimulation cocktail for either Th2 inflammation (proprietary Medpharm cocktail) or Th17 inflammation (mix of antibodies against CD3, CD28, IL-4, IFNγ and recombinant IL-1β, IL-6, IL-21, TGF-β). • 5. The biopsies are incubated at 37° C., 5% CO2 for a further 24 hrs. • 6. After harvesting, the biopsies are cut in half, and one half is homogenized and used for RNA extraction by standard methods. IL-4 or IL-17A is assessed by RT-qPCR.

[11] = tested on: human liver hepatocytes; experiment: Intrinsic clearance in human liver hepatocytes; assay type: in vitro ADME; conditions: human cryopreserved hepatocytes, 0.5 μM test compound
In short: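 Cryopreserved human hepatocytes in supplemented Williams Medium E were incubated at 37 °C, 5% CO2, with 0.5 μM compound at 0.25 million cells/mL final. Aliquots taken up to 120 min were quenched into acetonitrile and analysed by UPLC-MS/MS. Clearance came from an exponential decay fit of compound-to-internal-standard ratio over time.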

[12] = single point, screened at 30 times Kd, lower numbers indicate stronger hits

BRD3(2), sequence (Q15059 306-415): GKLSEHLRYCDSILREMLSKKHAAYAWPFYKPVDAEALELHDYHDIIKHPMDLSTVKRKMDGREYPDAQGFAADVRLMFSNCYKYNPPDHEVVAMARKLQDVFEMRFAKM
BRD3(1), sequence (Q15059 34-140): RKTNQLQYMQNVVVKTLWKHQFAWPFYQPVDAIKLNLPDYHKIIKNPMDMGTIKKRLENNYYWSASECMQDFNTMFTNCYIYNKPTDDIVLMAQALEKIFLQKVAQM
BRD2(2), sequence (P25440 344-453): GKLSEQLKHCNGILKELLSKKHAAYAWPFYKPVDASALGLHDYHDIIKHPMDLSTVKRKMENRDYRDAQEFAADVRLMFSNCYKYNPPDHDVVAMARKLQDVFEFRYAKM
BRD2(1), sequence (P25440 74-180): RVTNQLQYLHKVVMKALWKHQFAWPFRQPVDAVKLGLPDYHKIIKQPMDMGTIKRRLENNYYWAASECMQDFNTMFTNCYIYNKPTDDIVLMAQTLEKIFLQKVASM

pKd ([1]; dose response, read-out: BRD4(1) Kd): < 5.52 | pKd ([1]; read-out: BRD4 BD1 Kd): < 6.00 | BRD4(1) % Ctrl [1, 12]: 90 % Ctrl | pKd ([2]; dose response, read-out: BRD4(2) Kd): > 8.00 | pKd ([2]; read-out: BRD4 BD2 Kd): ≥ 8.00 | BRD4(2) % Ctrl [2, 12]: 8.7 % Ctrl | pKd ([3]; dose response): < 5.52 | BRD2(1) % Ctrl [3, 12]: 100 % Ctrl | pKd ([4]; dose response): < 5.52 | BRD3(1) % Ctrl [4, 12]: 85 % Ctrl | pKd ([5]; dose response): < 5.52 | BRDT(1) % Ctrl [5, 12]: 100 % Ctrl | pKd ([6]; dose response): > 8.00 | BRD2(2) % Ctrl [6, 12]: 0.1 % Ctrl | pKd ([7]; dose response): > 8.00 | BRD3(2) % Ctrl [7, 12]: 2.3 % Ctrl | pKd ([8]; dose response): > 8.00 | BRDT(2) % Ctrl [8, 12]: 13 % Ctrl | pEC50 ([9]; 48 hrs, ELISA, read-out: EC50 reduction of IL-4 levels): 7.00 to 8.00 | pEC50 ([9]; read-out: cellular EC50 values, reduction of IL-4 levels): > 7.00 | Intrinsic clearance, % Liver Blood Flow [11]: <34 % Liver Blood Flow
SMILES: CCNC(=O)c1cc2c(-c3ccn(C)c(=O)c3Oc3c(C)cc(F)cc3C)cn(C)c(=O)c2[nH]1 [Example 41, N-ethyl-4-(3-(4-fluoro-2,6-dimethylphenoxy)-1-methyl-2-oxo-1,2-dihydropyridin-4-yl)-6-methyl-7-oxo-6,7-dihydro-1H-pyrrolo[2,3-c]pyridine-2-carboxamide]
% reduction in IL-4 mRNA (IL-4) ([10]; 2.5 μM, Th2 biasing cocktail): ++ (> 50% reduction) | % reduction in IL-17A mRNA (IL-17) ([10]; 2.5 μM, Th17 biasing cocktail): +++ (> 75% reduction) | reduction of IL-4 or IL-17 levels ([10]; Th2 or Th17 biasing cocktail): > 50%
